Calls of active or inactive are those of the source. The calls are words filed in the database; no cut-off is given here.
Experiments:
[1] = target: Protease (Human immunodeficiency virus 1, UniProt Q9YQ12); assay: Inhibition of Human immunodeficiency virus 1 protease using Lys-Ala-Arg-Val-Leu-Phe(NO2)-Glu-Ala-Met as substrate
[2] = tested on: Simian immunodeficiency virus; assay: Antiviral activity against Simian immunodeficiency virus infected CEM174 cells assessed as inhibition of viral-induced syncytium formation after 5 days by microscopic analysis; assay type: functional, organism-based; settings: CEM174, 120 h
[3] = Therapeutic index, ratio of TC50 for human CEM174 cells to EC50 for SIV infected in human CEM174 cells; assay type: cell-based; settings: CEM174 cells (uninfected for TC50, SIV-infected for EC50), read-out: TI
[4] = Cytotoxicity against Homo sapiens (human) CEM174 cells; assay type: cell-based; settings: read-out: TC50 (the source's name)
[5] = target: Protease (Human immunodeficiency virus 1) (UniProt Q9YQ12); assay: Inhibition of Human immunodeficiency virus 1 protease expressed in human 293T cells cotransfected with pGAGPOL and pGAG assessed as Gagp24 protein expression after 48 hr by Western blot analysis; assay type: cell-based
Chain of Protease (Human immunodeficiency virus 1) (Q9YQ12 as listed by the source): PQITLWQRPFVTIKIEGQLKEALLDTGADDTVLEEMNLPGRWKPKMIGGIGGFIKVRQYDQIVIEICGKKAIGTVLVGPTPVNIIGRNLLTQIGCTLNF

Chain of Protease (Q9YQ12 whole entry): as the sequence (Q9YQ12 as listed by the source) above

Row | Compound | IC50 [1] | also measured
1 | O=C1OC(COc2cccc3ccccc23)(c2ccccc2)CC(O)=C1SCc1ccccc1 (racemic) | 128 nM | –
2 | CC(C)(C)NC(=O)[C@@H]1CN(Cc2cccnc2)CCN1C[C@@H](O)C[C@@H](Cc1ccccc1)C(=O)N[C@H]1c2ccccc2C[C@H]1O | – | EC50 [2]: < 100 nM; selectivity ratio [3]: > 1000; CC50 [4]: > 100000 nM
3 | O=C1OC(COc2cccc3ccccc23)(c2ccccc2)CC(O)=C1Sc1ccccc1Cl (racemic) | 59 nM | –
4 | Cc1ccccc1SC1=C(O)CC(COc2ccc3ccccc3c2)(c2ccccc2)OC1=O (racemic) | 61 nM | –
5 | O=C(O)CCCCC1(CCc2ccccc2)CC(O)=C(SCCc2ccccc2)C(=O)O1 (centres undefined) | 5 nM | –
6 | O=C1OC(COc2ccc3ccccc3c2)(c2ccccc2)CC(O)=C1SCc1ccccc1 (racemic) | 73 nM | –
7 | Cc1ccc(C)c(SC2=C(O)CC(COc3ccc4ccccc4c3)(c3ccccc3)OC2=O)c1 (racemic) | 65 nM | –
8 | CCc1ccccc1SC1=C(O)CC(COc2cccc3ccccc23)(c2ccccc2)OC1=O (racemic) | 100 nM | –
9 | O=C1OC(COc2cccc3ccccc23)(c2ccccc2)CC(O)=C1Sc1ccccc1 (racemic) | 159 nM | –
10 | Cc1ccccc1SC1=C(O)CC(COc2cccc3ccccc23)(c2ccccc2)OC1=O (racemic) | 64 nM | –
11 | Cc1ccc(C)c(SC2=C(O)CC(COc3cccc4ccccc34)(c3ccccc3)OC2=O)c1 (racemic) | 126 nM | –
12 | Cc1ccc(C(C)C)c(SC2=C(O)CC(CCc3ccccc3)(C(C)C)OC2=O)c1 (centres undefined) | 1.1 nM | EC50 [2]: 15000 nM
13 | O=C1OC(COc2ccc3ccccc3c2)(c2ccccc2)CC(O)=C1Sc1ccccc1Cl (racemic) | 89 nM | –

More lines, main results first:

Row | IC50 [1] | Compound | also measured
14 | 258 nM | O=C1OC(CSc2ccccc2)(c2ccccc2)CC(O)=C1Sc1ccccc1 (racemic) | –
15 | 240 nM | Cc1ccccc1SC1=C(O)CC(CSc2ccccc2)(c2ccccc2)OC1=O (racemic) | –
16 | 3.5 nM | CCOc1ccc(OCC)c(SC2=C(O)CC(COc3cccc4ccccc34)(c3ccccc3)OC2=O)c1 (racemic) | inhibition [5]: Active
17 | 32 nM | O=C1OC(CSc2ccccc2)(c2ccccc2)CC(O)=C1SCc1ccccc1 (racemic) | –
18 | 70 nM | O=C1OC(CSc2ccccc2)(c2ccccc2)CC(O)=C1Sc1ccccc1Cl (racemic) | –
19 | 24 nM | CCOc1ccc(OCC)c(SC2=C(O)CC(CSc3ccccc3)(c3ccccc3)OC2=O)c1 (racemic) | –
20 | 238 nM | CCc1ccccc1SC1=C(O)CC(CSc2ccccc2)(c2ccccc2)OC1=O (racemic) | –
21 | 126 nM | O=C1OC(COc2ccc3ccccc3c2)(c2ccccc2)CC(O)=C1Sc1ccccc1 (racemic) | –
22 | 9.2 nM | CCOc1ccc(OCC)c(SC2=C(O)CC(COc3ccc4ccccc4c3)(c3ccccc3)OC2=O)c1 (racemic) | inhibition [5]: Active
23 | 196 nM | Cc1ccc(C)c(SC2=C(O)CC(CSc3ccccc3)(c3ccccc3)OC2=O)c1 (racemic) | –
24 | 22 nM | CCc1ccccc1SC1=C(O)CC(COc2ccc3ccccc3c2)(c2ccccc2)OC1=O (racemic) | –
